# Test system: Pt-GG adducts in DNA
# Experiment: In vivo screening for cis-platin uptake inhibitors and DPH co-administration, ICA of Pt-GG adducts
# Parameters: species or system mice
# Details: 24 h; for inhibition of DNA platination in the three target cell types: independent of dosing (quinine 100 or 50 mg/kg, butylscopolamine 20 or 10 mg/kg) i.p. 1 h before cis-platin 10 mg/kg
# Protocol: The sacrificed animals were immediately dissected. Kidneys and lungs were submerged in embedding medium (Tissue-Tek O.C.T. Compound) and frozen in liquid nitrogen. Cochleae were dissected and fixed by intralabyrinthine perfusion with Carnoy's solution (3 hours; for DNA adduct staining) or with formaldehyde (4 % in PBS; 1 hour; for OCT protein staining). Cochleae were decalcified in EDTA solution (10 % w/v in PBS) for 3 days and then placed in sucrose solutions (5 % in PBS for 12 hours and 15 % in PBS for 5 hours). After that samples were imbedded in Tissue-Tek medium, frozen and cryosections of 10 µm cut.
# Frozen tissue sections of the inner ear or kidneys on ImmunoSelect slides were fixed in methanol at -20°C for at least 2 hours or overnight and then rehydrated for 10 minutes in PBS, at room temperature. To provide better antibody penetration in the tissue structures the samples underwent alkaline permeabilisation of cytoplasmic and nuclear membranes for 5 minutes at 0°C, followed by washing in PBS at room temperature for 5 minutes. The proteolytic cleavage of cytoplasmic and nuclear proteins was performed in two steps. At first, a pre-warmed pepsin solution (60 µg /ml for cell culture or 100 µg/ml for tissue sections in PBS/HCl) was applied onto the tissue sections and incubated for 10 minutes at 37°C in a humidified chamber. The incubation with pepsin was followed by washing in PBS for 10 minutes at room temperature. In a second step tissue sections were incubated with pre-warmed proteinase K solution (40 µg/ml for cell cultures or 50-100 µg /ml for tissue sections in proteinase K buffer) for 10 minutes at 37°C in a humidified chamber. Subsequently the sections were washed in 0.2 % glycine in PBS for 10 minutes at room temperature. Non-specific binding of the antibodies was inhibited by incubation with a blocking solution of 1 % casein in PBS for 30 minutes at room temperature. The samples were then incubated with a monoclonal antibody (R-C18, Liedert et al., 2006) specific for Pt-GG adducts in DNA (0.1 µg/ml in 0.1 % BSA/PBS) over night at 4°C in the humidified chamber. Subsequently, the slides were washed in 0.05 % Tween 20 in PBS for 5 minutes at room temperature and then in PBS for 5 minutes. The incubation with secondary Cy3-labeled rabbit anti-(rat Ig) antibodies, was performed (0.2 µg/ml in 0.1 % BSA/PBS) for 60 minutes at 37°C in the humidified chamber, followed by washing in 0.05 % Tween 20 in PBS for 5 minutes at room temperature and then in PBS for 5 minutes. The nuclear DNA was counterstained with DAPI (1 µg/ml in PBS) for 30 minutes at room temperature. The slides were then washed in PBS. Finally, the samples were embedded with a densification compound "[…]". The quantification of immuno- and DNA-fluorescence was performed by means of a microscope-coupled digital image analysis system ACAS 6.0 Cytometry Analysis System. Adduct levels in the nuclear DNA of individual cells were calculated by normalizing antibody-derived fluorescence signals to the corresponding DNA content of the same nucleus, and were expressed as arbitrary fluorescence units (AFUs). Data were assigned to specific cell types as determined by histochemistry.
# The mice were separated into two groups for pretreatment with low or high doses of the test compounds. […] The low dose group received half the dose of the high dose group (50, 50, 30 or 10 mg/kg, respectively). […] Cochleae and kidneys were dissected for immunostaining and ICA analyses of Pt-GG adduct levels in specific cell types (Figure 8). In tissue sections from mice pretreated with quinine or butylscopolamine no inhibition of DNA platination was observed, independent of the dosing, in either of the three target cell types (renal tubulus epithelium cells (Figure 8 A), cochlear marginal cells (Figure 8B) and outer hair cells (Figure 8 C)). […]
SMILES,"reduction of adduct levels in all three target cell types (high dose (ranitidine 100 mg/kg) i.p. 1 h before cis-platin 10 mg/kg, renal tubulus epithelium, cochlear marginal and outer hair cells)",inhibition of DNA platination in the three target cell types
CNC(=C[N+](=O)[O-])NCCSCc1ccc(CN(C)C)o1 [ranitidine],15 - 20%,–
C=C[C@H]1C[N@@]2CC[C@H]1C[C@H]2[C@H](O)c1ccnc2ccc(OC)cc12 [quinine],–,no inhibition
CCCC[N+]1(C)[C@@H]2C[C@@H](OC(=O)[C@H](CO)c3ccccc3)C[C@H]1[C@@H]1O[C@@H]12 (stereo partly drawn) [butylscopolamine],–,no inhibition
